Data on 8 molecules can be found in patent US10112968B2, “Inhibitors of protein methyltransferase DOT1L and methods of use thereof” (Epizyme, Inc., priority 2012, dated 2018).

The subject of one data set is MV4-11 xenograft tumors. As to the kind of experiment: MV4-11 nude rat subcutaneous xenograft model of MLL-rearranged leukemia. The class given is in vivo. As for the experimental part: Four groups of 10 (Groups 1, 2, 3, and 4 female RH nu/nu rats (7 weeks old, weighing 120-160 g) bearing MV4-11 xenograft tumors of sizes ranging from 300-600 mm^3 were implanted with a catheter in the femoral vein). The infusion flow rate was set at 1,500 μL/hour/kg and was adjusted to the most recent mean body weight of each treatment group (as an example, the infusion flow rate was 300 μL/hour for a group of rats having a mean body weight of 200 g). Group 1 received vehicle via a 21-day continuous IV infusion. Group 2 received 21-day continuous IV infusion of the test substance at 35 mg/kg/day. Group 3 received a daily 8-hour continuous IV infusion of the test substance at 67 mg/kg/day for 21 consecutive days. Between two IV infusions of the test substance, the rats were kept under IV infusion with NaCl 0.9% solution. Group 4 received a 21-day continuous IV infusion of the test substance at 70 mg/kg/day. Syringes used for the IV infusion were replaced every day.
The rats were terminated when the subcutaneous tumor reached a maximum volume of 9,000 mm^3 or at a maximum of 55 days after tumor cells injection.

The subject of data set [1] is leukemia cell lines without the chromosomal rearrangement of the MLL gene. As to the kind of experiment: Antiproliferative effect on leukemia cell lines without MLL rearrangement. Format: cell-based.
The test system of data set [2] is MLL-rearranged leukemia cells. Nature of the data set: Cell killing in MLL-rearranged leukemia cells. The class given is cell-based.
Data set [3] has as its system other histone methyl marks. Nature of the data set: Effect on other histone methyl marks in cells. Format: cell-based.
Data set [4] in a line: Pharmacokinetic half-life in systemic circulation, dogs. The class given is in vivo.
Data set [5] is described as follows: Pharmacokinetic half-life in systemic circulation, rats. Format: in vivo.
The next data set concerns H3K79 methylation. As to the kind of experiment: H3K79 methylation in treated leukemia cells. Format: cell-based. The conditions noted are these: treatment of leukemia cells.
For data set [6], the target named is T1, DOT1L (Homo sapiens (Human), UniProt Q8TEK3). As to the kind of experiment: DOT1L enzymatic activity radiometric assay (methyl transfer from SAM to chicken erythrocyte nucleosomes). The conditions noted are these: for IC50: read-out: DOT1L IC50; for alpha: global fit.
The target of data set [7] is T1, DOT1L. Nature of the data set: Ligand association and dissociation rate constants by surface plasmon resonance (SPR). To be noted: Kd calculated as koff/kon. The class given is binding.
Another data set relates to H3K79me2 in MV4-11 cells. As to the kind of experiment: H3K79me2 quantitative ELISA. The conditions noted are these: Homo sapiens, MV4-11, 96 h, read-out: Cellular IC50 H3K79 Methylation.
In data set [8] the test system is HOXA9 mRNA in MV4-11 cells. Nature of the data set: Quantitative real-time PCR analysis of HOXA9 message. The conditions noted are these: Homo sapiens, MV4-11, 144 h, read-out: Cellular IC50 HOXA9 mRNA.
In a further data set the test system is MV4-11 cells. As to the kind of experiment: Cell proliferation assay (Guava Viacount, 14 days). Format: cell-based. To be noted: Homo sapiens, 336 h, day 14, read-out: Cellular IC50 Proliferation.
A further data set has as its system MLL-rearranged leukemia. As to the kind of experiment: Aggressive, disseminated mouse model of MLL-rearranged leukemia. The conditions noted are these: as previously described. The class given is in vivo.

Entries after “also recorded” stand apart in the source; their conditions may differ.

T1 sequence (Q8TEK3 whole entry): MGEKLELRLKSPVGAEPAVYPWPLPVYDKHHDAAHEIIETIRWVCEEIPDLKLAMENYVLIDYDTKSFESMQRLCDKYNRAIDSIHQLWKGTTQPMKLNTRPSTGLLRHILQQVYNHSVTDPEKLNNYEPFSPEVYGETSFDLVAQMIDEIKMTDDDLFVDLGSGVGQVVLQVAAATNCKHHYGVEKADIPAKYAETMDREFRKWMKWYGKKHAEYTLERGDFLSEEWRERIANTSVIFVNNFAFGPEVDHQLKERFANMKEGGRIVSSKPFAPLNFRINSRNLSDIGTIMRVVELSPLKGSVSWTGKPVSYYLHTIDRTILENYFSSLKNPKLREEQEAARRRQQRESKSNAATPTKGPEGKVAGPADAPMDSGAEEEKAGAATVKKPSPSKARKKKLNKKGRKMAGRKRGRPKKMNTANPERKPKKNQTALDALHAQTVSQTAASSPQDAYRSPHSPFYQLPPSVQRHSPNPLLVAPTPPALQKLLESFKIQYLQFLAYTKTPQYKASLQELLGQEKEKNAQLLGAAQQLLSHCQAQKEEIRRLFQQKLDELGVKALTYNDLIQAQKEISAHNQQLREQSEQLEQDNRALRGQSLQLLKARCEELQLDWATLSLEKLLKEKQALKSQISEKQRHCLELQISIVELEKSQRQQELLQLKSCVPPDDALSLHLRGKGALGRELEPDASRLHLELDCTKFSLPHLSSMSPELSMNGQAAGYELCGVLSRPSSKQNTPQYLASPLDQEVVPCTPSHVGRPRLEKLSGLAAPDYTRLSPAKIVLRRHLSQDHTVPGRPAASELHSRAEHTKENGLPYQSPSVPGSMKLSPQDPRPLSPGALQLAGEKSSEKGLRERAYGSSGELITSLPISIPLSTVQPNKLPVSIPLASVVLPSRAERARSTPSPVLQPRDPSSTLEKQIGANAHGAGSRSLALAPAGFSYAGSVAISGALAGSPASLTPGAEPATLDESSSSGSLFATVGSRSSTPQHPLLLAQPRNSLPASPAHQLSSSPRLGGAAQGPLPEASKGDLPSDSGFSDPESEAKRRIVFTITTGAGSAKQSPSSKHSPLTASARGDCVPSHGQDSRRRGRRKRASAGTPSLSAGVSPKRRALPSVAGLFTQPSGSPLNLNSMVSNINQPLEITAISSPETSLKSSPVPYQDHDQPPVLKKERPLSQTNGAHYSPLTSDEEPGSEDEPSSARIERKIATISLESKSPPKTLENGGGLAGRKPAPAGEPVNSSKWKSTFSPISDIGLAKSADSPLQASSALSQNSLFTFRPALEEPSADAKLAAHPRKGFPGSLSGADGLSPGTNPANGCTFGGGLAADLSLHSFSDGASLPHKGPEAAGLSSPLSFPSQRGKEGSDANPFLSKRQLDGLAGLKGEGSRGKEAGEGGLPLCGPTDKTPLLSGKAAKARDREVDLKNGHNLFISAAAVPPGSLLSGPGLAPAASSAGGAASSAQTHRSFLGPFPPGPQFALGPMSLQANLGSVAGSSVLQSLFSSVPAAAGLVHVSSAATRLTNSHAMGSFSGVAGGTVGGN

As for `CC(C)N(C[C@H]1O[C@@H](n2cnc3c(N)ncnc32)[C@H](O)[C@@H]1O)[C@H]1C[C@@H](CCc2nc3cc(C(C)(C)C)ccc3[nH]2)C1` [Compound A2, (2R,3R,4S,5R)-2-(6-amino-9H-purin-9-yl)-5-((((1r,3S)-3-(2-(5-(tert-butyl)-1H-benzo[d]imidazol-2-yl)ethyl)cyclobutyl)(isopropyl)amino)methyl)tetrahydrofuran-3,4-diol], the anti-tumor activity result with MV4-11 xenograft tumors (continuous intravenous infusion for 21 days, FIG. 1) was “dose-dependent anti-tumor activity; also recorded: complete and sustained tumor regression”. Besides, the “time with no regrowth after the cessation of treatment” value in the data set with MV4-11 xenograft tumors (highest dose (70 mg/kg/day)) was “up to 32 days”. For the same molecule, in the data set with MV4-11 xenograft tumors (highest dose (70 mg/kg/day), 21-day continuous IV infusion), the tumor regressions entry is reported as “complete tumor regressions”. Moreover, the “weight loss or toxicity during efficacy study” value with MV4-11 xenograft tumors (rats) is reported as “No significant weight loss or obvious toxicity”. Further, the “impact on non-rearranged cells” value in [1] was “minimal impact”. Moreover, the cell killing result in data set [2] was “selective, apoptotic cell killing”. In data set [3], the “effect on other histone methyl marks / methylation status of other histone sites” value is recorded as “without effect”. Besides, the “effective pharmacokinetic half-life in systemic circulation” value was found to be 90 min in data set [4] and 15 min in data set [5]. For the same molecule, in the data set on H3K79 methylation, the H3K79 methylation result was “concentration- and time-dependent diminution”.

For the molecule `CC(C)N(C[C@H]1O[C@@H](n2cnc3c(N)ncnc32)[C@H](O)[C@@H]1O)[C@H]1C[C@@H](CCc2nc3cc(Cl)c(C(F)(F)F)cc3[nH]2)C1` [Compound A5, (2R,3R,4S,5R)-2-(6-amino-9H-purin-9-yl)-5-((((1r,3S)-3-(2-(5-chloro-6-(trifluoromethyl)-1H-benzo[d]imidazol-2-yl)ethyl)cyclobutyl)(isopropyl)amino)methyl)tetrahydrofuran-3,4-diol], on DOT1L [6], the IC50 was found to be 0.59 nM.

As to `CC(C)N(C[C@H]1O[C@@H](n2ccc3c(N)ncnc32)[C@H](O)[C@@H]1O)[C@H]1C[C@H](CCc2nc3cc(C(C)(C)C)ccc3[nH]2)C1` [Compound A75, (2R,3R,4S,5R)-2-(4-amino-7H-pyrrolo[2,3-d]pyrimidin-7-yl)-5-((((1s,3R)-3-(2-(5-(tert-butyl)-1H-benzo[d]imidazol-2-yl)ethyl)cyclobutyl)(isopropyl)amino)methyl)tetrahydrofuran-3,4-diol], the IC50 at DOT1L [6] turned out to be 0.59 nM.

Turning to `CN(C[C@H]1O[C@@H](n2ccc3c(N)ncnc32)[C@H](O)[C@@H]1O)[C@H]1C[C@@H](CCc2nc3cc(C(C)(C)C)ccc3[nH]2)C1` [Compound A86, (2R,3R,4S,5R)-2-(4-amino-7H-pyrrolo[2,3-d]pyrimidin-7-yl)-5-((((1r,3S)-3-(2-(5-(tert-butyl)-1H-benzo[d]imidazol-2-yl)ethyl)cyclobutyl)(methyl)amino)methyl)tetrahydrofuran-3,4-diol], the IC50 on DOT1L [6] came to 0.62 nM.

`CC(C)N(C[C@H]1O[C@@H](n2ccc3c(N)ncnc32)[C@H](O)[C@@H]1O)[C@H]1C[C@@H](CCc2nc3cc(OC(F)(F)F)ccc3[nH]2)C1` [Compound A87, (2R,3R,4S,5R)-2-(4-amino-7H-pyrrolo[2,3-d]pyrimidin-7-yl)-5-((isopropyl((1r,3S)-3-(2-(5-(trifluoromethoxy)-1H-benzo[d]imidazol-2-yl)ethyl)cyclobutyl)amino)methyl)tetrahydrofuran-3,4-diol]: on DOT1L [6], the IC50 was determined as 0.8 nM.

For the molecule `CN(CCNC(=O)OCC1c2ccccc2-c2ccccc21)C[C@H]1OC(n2cnc3c(N)ncnc32)[C@H](O)[C@@H]1O` (some centres unmarked) [Compound C64], the Ki on DOT1L [6] is 20000 nM.

For the molecule `CN(CCNC(=O)Nc1ccc(C(C)(C)C)cc1)C[C@H]1O[C@@H](n2cnc3c(N)ncnc32)[C@H](O)[C@@H]1O` [Compound C94], the Kd at DOT1L [7] is 167 ± 100 nM. The same molecule gave a Ki at DOT1L [6] of 845 nM. The IC50 in the data set with H3K79me2 in MV4-11 cells is 28000 ± 25000 nM; in [8] it was above 50000 nM; in the data set on MV4-11 cells, above 50000 nM.

With `CC(C)N(CCCNC(=O)Nc1ccc(C(C)(C)C)cc1)C[C@H]1OC(n2ccc3c(N)ncnc32)C(O)[C@@H]1O` (some centres unmarked) [Compound D16], the “inhibition modality with respect to SAM” value against DOT1L [6] was “competitive inhibitor”. In addition, at DOT1L [6], the “inhibition modality with respect to nucleosome” value is reported as “noncompetitive inhibitor”. The alpha on DOT1L [6] (FIG. 2A, varied SAM concentration) is reported as 10±6; at DOT1L [6] (FIG. 2B, varied oligonucleosome concentration), 0.5±0.2. The molecule further yielded a ΔΔGbinding at DOT1L [6] (between C118 and D16, at 25° C.) of 2.4 to 2.9 kcal/mol. In addition, the results for the IC50 (with H3K79me2 in MV4-11 cells; in data set [8]; in the data set with MV4-11 cells) were 5 ± 3 nM, 830 ± 170 nM and 146 ± 72 nM, respectively. Besides, the survival entry in the data set on MLL-rearranged leukemia is “statistically significant survival advantage”.
